Data published in patent US8802732B2, “Lycopene and resveratrol compositions for NK cell activation resulting in anti-neoplastic effect” (Hsiehs Biotech (Singapore) Pte Ltd, priority 2009, dated 2014).

Columns and labels:
[1] = tested on: NK cells; assay: Cytotoxic activity of spleen NK cells from orally treated mice against B16 melanoma cells (LDH release); type: in vivo, Balb/c mice; settings: oral daily for one week; lycopene 2 mg/day or resveratrol 4 mg/day
Experimental: NK cells were isolated from Balb/c mice spleen. Each group of mice were killed at day 7 post-feeding of lycopene/resveratrol. The spleens were excised and soaked in 75% ethanol for 5 min, and smeared gently on cell sieves. The single cells were collected by flushing the sieve with RPMI-1640 medium. The derived total spleen cells were isolated by centrifugation at 2000 rpm by placing the mixture on the top of lymphocyte separation solution for 25 min. The white-colored lymphocyte layer was recovered carefully, and washed twice with serum-free RPMI-1640 medium, counted and transferred into 6-well plates as the stock. The lymphocytes thus prepared contains 10-20% of NK cells, and used for NK cell assay [Ref. 18: Zhang (2006)].
The B16 melanoma was excised from a tumor-bearing C57 mouse, and soaked in Hank's medium for 30 min. The adipose and necrotic parts of the tumor were removed, and the tumor was cut into small pieces and treated with RPMI-1640 containing 0.1% type II […] at 4° C. for 12 h. […]
NK cells isolated from mice spleen were mixed with B16 melanoma cells at ratios of 25:1, 50:1 and 100:1, and incubated at 37° C. After 5 h, the lactate dehydrogenase (LDH) activities in 100 μl of culture media were measured as the cytolytic activity of NK cells. Cytotoxicity is calculated according to the following formula. […]

[2] = cited from earlier work

Compound | NK cytotoxicity change versus control [1] | anti-oxidative activity, higher than vitamin E ([2]; relative to vitamin E) | anti-oxidative activity, higher than β-carotene ([2]; relative to β-carotene)
CC(C)=CCC/C(C)=C/C=C/C(C)=C/C=C/C(C)=C/C=C/C=C(C)/C=C/C=C(C)/C=C/C=C(\C)CCC=C(C)C [lycopene] | slight increase (not significantly) | 100 folds | 3.2 folds
Oc1ccc(C=Cc2cc(O)cc(O)c2)cc1 [resveratrol] | slight increase (not significantly) | – | –
